These results are taken from patent US11225505B2, “Antimicrobial polymyxin derivative compounds” (MONASH UNIVERSITY, priority 2015, dated 2022).

Format in all cases: cell-based
Assay [1] concerns Acinetobacter baumannii ATCC 17978. To be noted: ATCC 17978. An outline of the steps:
(§1)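 MICs were determined by broth microdilution in cation-adjusted Mueller-Hinton broth following the CLSI M100-S24 protocol. Lipopeptides were tested as trifluoroacetic acid salts against polymyxin-susceptible Gram-negative strains, with polymyxin B sulphate as control. FADDI-PA022 and FADDI-AB034 are multidrug-resistant clinical isolates.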

Assay [2] concerns Enterobacter cloacae FADDI-EC003. To be noted: FADDI-EC003. An outline of the steps:
as §1

Assay [3] deals with Pseudomonas aeruginosa ATCC 27853. To be noted: ATCC 27853. An outline of the steps:
as §1

In assay [4] the test system is Klebsiella pneumoniae FADDI-KP032. To be noted: FADDI-KP032. An outline of the steps:
as §1

The subject of assay [5] is Klebsiella pneumoniae FADDI-KP022. To be noted: FADDI-KP022. An outline of the steps:
as §1

The test system of assay [6] is Enterobacter cloacae FADDI-EC001. To be noted: FADDI-EC001. Summed up:
as §1

Assay [7] has as its system Pseudomonas aeruginosa FADDI-PA038. To be noted: FADDI-PA038. Summed up:
as §1

Assay [8] deals with Acinetobacter baumannii FADDI-AB034. To be noted: FADDI-AB034. An outline of the steps: as §1
Assay [9] relates to Klebsiella pneumoniae Kp BM1. To be noted: Kp BM1. Summed up: as §1
Assay [10] concerns Pseudomonas aeruginosa FADDI-PA022. To be noted: FADDI-PA022. An outline of the steps: as §1
Assay [11] deals with Pseudomonas aeruginosa FADDI-PA01. To be noted: FADDI-. Summed up:
as §1

Assay [12] has as its system Enterobacter cloacae FADDI-EC006. To be noted: FADDI-EC006. An outline of the steps: as §1
Assay [13] relates to Acinetobacter baumannii FADDI-AB030. Put plainly: microbe, parasite or virus in culture. To be noted: FADDI-AB030. Summed up: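 Broth microdilution MIC in cation-adjusted Mueller-Hinton broth per CLSI M100-S24; lipopeptides tested as TFA salts. FADDI-AB030 is a multidrug-resistant clinical isolate. Polymyxin B sulphate served as control.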

Molecules are shown by their SMILES. Converted amounts (≈) assume the structure as drawn. Where a SMILES comes first, the peptide text is derived from it. Bridges are numbered along the chain shown (N, C = ends). [ ]: non-standard residue; d: D form. The star is where a group is joined. X18 = O=C(c1cc(-c2ccccc2)[nH]n1)*; X69 = Cn1c(C(=O)*)nc2ccccc21; X27 = O=C(c1sc2ccccc2c1Cl)*; Dab = NCC[C@H](N)C(=O)O; Abu = CC[C@H](N)C(=O)O; Dap = NC[C@H](N)C(=O)O

`CC[C@@H]1NC(=O)[C@@H](CC(C)C)NC(=O)[C@H](CCN)NC(=O)[C@@H](NC(=O)[C@H](CN)NC(=O)[C@@H](NC(=O)[C@H](CCN)NC(=O)c2cc(-c3ccccc3)[nH]n2)[C@@H](C)O)CCNC(=O)[C@H]([C@@H](C)O)NC(=O)[C@H](CCN)NC(=O)[C@H](CCN)NC1=O` [Compound 84] (X18-[Dab]T[Dap][Dab][Dab][dL][Abu][Dab][Dab]T; lactam 4-C): the Minimum inhibitory concentration in assay [1] is 0.5 µg/mL (≈ 0.432 µM); in assay [2], <0.125 µg/mL; in assay [3], 0.25 µg/mL (≈ 0.216 µM); in assay [4] it was 0.25 µg/mL (≈ 0.216 µM); in assay [5] it was <0.125 µg/mL; in assay [6], 0.25 µg/mL (≈ 0.216 µM). The Minimum inhibitory concentration in assay [7] is 0.5 µg/mL (≈ 0.432 µM); in [8], 0.5 µg/mL (≈ 0.432 µM); in assay [9], <0.125 µg/mL; in assay [10], 0.25 µg/mL (≈ 0.216 µM); in assay [11], 0.25 µg/mL (≈ 0.216 µM); in assay [12], <0.125 µg/mL. In assay [13], this compound had a Minimum inhibitory concentration of 0.5 µg/mL (≈ 0.432 µM).

`CC[C@@H]1NC(=O)[C@@H](CC(C)C)NC(=O)[C@H](CCN)NC(=O)[C@@H](NC(=O)[C@H](CN)NC(=O)[C@@H](NC(=O)[C@H](CCN)NC(=O)c2nc3ccccc3n2C)[C@@H](C)O)CCNC(=O)[C@H]([C@@H](C)O)NC(=O)[C@H](CCN)NC(=O)[C@H](CCN)NC1=O` [Compound 57] (X69-[Dab]T[Dap][Dab][Dab][dL][Abu][Dab][Dab]T; lactam 4-C): the Minimum inhibitory concentration in assay [1] is 0.5 µg/mL (≈ 0.437 µM); in assay [2], 0.25 µg/mL (≈ 0.218 µM); in assay [3] it was 0.5 µg/mL (≈ 0.437 µM); in assay [4] it was <0.125 µg/mL; in [5], <0.125 µg/mL; in [6], <0.125 µg/mL. The Minimum inhibitory concentration is 0.5 µg/mL (≈ 0.437 µM) in assay [7]; 0.5 µg/mL (≈ 0.437 µM) in [8]; 0.25 µg/mL (≈ 0.218 µM) in assay [9]; 0.5 µg/mL (≈ 0.437 µM) in assay [10]; 0.25 µg/mL (≈ 0.218 µM) in assay [11]; 1 µg/mL (≈ 0.873 µM) in assay [12]. The compound also gave a Minimum inhibitory concentration in assay [13] of 0.25 µg/mL (≈ 0.218 µM).

Turning to `CC(C)C[C@H]1NC(=O)[C@H](CCN)NC(=O)[C@@H](NC(=O)[C@H](CN)NC(=O)[C@@H](NC(=O)[C@H](CCN)NC(=O)c2sc3ccccc3c2Cl)[C@@H](C)O)CCNC(=O)[C@H]([C@@H](C)O)NC(=O)[C@H](CCN)NC(=O)[C@H](CCN)NC(=O)[C@H](C)NC1=O` [Compound 69] (X27-[Dab]T[Dap][Dab][Dab][dL]A[Dab][Dab]T; lactam 4-C), the Minimum inhibitory concentration was 0.25 µg/mL (≈ 0.214 µM) in [1]; 0.25 µg/mL (≈ 0.214 µM) in assay [2]; 0.5 µg/mL (≈ 0.428 µM) in assay [3]; 0.25 µg/mL (≈ 0.214 µM) in assay [4]; <0.125 µg/mL in assay [5]; 1 µg/mL (≈ 0.856 µM) in assay [6]. Besides, the Minimum inhibitory concentration in assay [7] is 2 µg/mL (≈ 1.71 µM); in assay [8], 0.25 µg/mL (≈ 0.214 µM); in assay [9], 0.25 µg/mL (≈ 0.214 µM); in assay [10], 0.5 µg/mL (≈ 0.428 µM); in [11] it was 0.5 µg/mL (≈ 0.428 µM); in assay [12] it was 0.25 µg/mL (≈ 0.214 µM). Besides, the Minimum inhibitory concentration in assay [13] amounted to 0.25 µg/mL (≈ 0.214 µM).
